Data: publication PMC6089974 (Nature Communications, 2018)

Biological target: T1, TmGalA (Thermotoga maritima, UniProt G4FEF4)
T1 construct: gene galA
Assay: time-dependent inactivation, dilution assay, residual activity with 4-nitrophenyl α-D-galactopyranoside
Assay type: biochemical
Details: covalent, irreversible inactivator; Ki from kobs versus concentration (kinact/Ki analysis); 50 mM HEPES pH 7.4, 37 °C, BSA 1 mg/mL; read-out: Km (μM) / Ki

T1 sequence (G4FEF4 whole entry): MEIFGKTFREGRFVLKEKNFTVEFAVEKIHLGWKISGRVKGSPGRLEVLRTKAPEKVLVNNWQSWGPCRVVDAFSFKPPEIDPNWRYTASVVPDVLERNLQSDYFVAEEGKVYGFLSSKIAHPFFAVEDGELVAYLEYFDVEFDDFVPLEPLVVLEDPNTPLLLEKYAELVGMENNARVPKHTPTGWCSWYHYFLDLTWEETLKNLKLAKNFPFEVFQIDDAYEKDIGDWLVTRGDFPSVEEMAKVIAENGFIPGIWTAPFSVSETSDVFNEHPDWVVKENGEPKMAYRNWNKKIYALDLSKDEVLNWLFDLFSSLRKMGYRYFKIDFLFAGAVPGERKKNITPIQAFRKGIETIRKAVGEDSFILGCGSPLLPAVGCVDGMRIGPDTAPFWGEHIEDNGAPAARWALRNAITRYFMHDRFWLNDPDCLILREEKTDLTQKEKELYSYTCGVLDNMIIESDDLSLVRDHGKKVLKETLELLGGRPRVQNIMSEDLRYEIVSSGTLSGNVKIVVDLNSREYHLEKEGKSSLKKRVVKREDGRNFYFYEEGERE

OC[C@@H]1[C@H](O)[C@H](O)[C@@H](O)[C@H]2O[C@@H]12 [compound 8, cyclophellitol analog 8]
KI (inactivation): 161 ± 18 µM
